The source made the active and inactive calls. The rule behind the calls is not given here.
What was measured:
[1] = molecular target: Sigma non-opioid intracellular receptor 1 (Cavia porcellus, UniProt Q60492); assay: Displacement of [3H]-(+)-pentazocine from sigma1 receptor in guinea pig brain cortex membranes incubated for 120 mins by scintillation counting method; assay type: cell membranes
[2] = molecular target: T1, Sigma intracellular receptor 2 (Rattus norvegicus, UniProt Q5U3Y7); assay: Displacement of [3H]-di-o-tolylguanidine from sigma2 receptor in rat liver membranes incubated for 120 mins by scintillation counting method; assay type: cell membranes, Membrane
T1 sequence (Q5U3Y7 whole entry): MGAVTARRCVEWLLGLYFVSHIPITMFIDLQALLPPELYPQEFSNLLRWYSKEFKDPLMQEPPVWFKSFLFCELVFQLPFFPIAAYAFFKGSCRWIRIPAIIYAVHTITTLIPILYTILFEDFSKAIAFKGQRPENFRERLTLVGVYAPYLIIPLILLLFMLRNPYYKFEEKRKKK

[3] = Stability in pH 7.4 phosphate buffer assessed as parent compound remaining after 24 hrs by HPLC; assay type: physicochemical; conditions: pH 7.4, 24 h
[4] = molecular target: Sodium-dependent serotonin transporter (Homo sapiens) (UniProt P31645); assay: Inhibition of SERT (unknown origin) at 1 uM relative to control
[5] = molecular target: T2, Alpha-1A adrenergic receptor (Homo sapiens) (UniProt P35348); assay: Inhibition of alpha-1A adrenergic receptor (unknown origin) at 1 uM relative to control
T2 sequence (whole entry): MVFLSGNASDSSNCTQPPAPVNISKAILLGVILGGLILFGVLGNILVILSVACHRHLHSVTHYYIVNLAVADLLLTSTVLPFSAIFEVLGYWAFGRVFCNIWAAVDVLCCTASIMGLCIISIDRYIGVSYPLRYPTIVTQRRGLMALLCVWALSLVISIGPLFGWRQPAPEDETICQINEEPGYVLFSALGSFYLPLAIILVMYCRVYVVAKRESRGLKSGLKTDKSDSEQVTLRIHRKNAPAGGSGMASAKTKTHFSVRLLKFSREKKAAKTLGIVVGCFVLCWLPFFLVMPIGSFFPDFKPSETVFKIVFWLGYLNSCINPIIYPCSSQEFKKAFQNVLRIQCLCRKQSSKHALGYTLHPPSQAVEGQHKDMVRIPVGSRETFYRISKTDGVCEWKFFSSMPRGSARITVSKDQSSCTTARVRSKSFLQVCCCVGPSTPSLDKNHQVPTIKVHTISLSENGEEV

[6] = Displacement of [3H]-(+)-MK-801 from NMDA PCP binding site in pig brain cortex membrane incubated for 120 mins by scintillation counting method; assay type: cell membranes, Sus scrofa
[7] = molecular target: Glutamate receptor ionotropic, NMDA 2B (Homo sapiens, UniProt Q13224); assay: Displacement of [3H]ifenprodil from GluN2B (unknown origin) expressed in mouse L(tk-) cell membranes incubated for 120 mins by scintillation counting method
[8] = molecular target: Sodium-dependent dopamine transporter (Homo sapiens) (UniProt Q01959); assay: Inhibition of DAT (unknown origin) at 1 uM relative to control
[9] = molecular target: 5-hydroxytryptamine receptor 2B (Homo sapiens) (UniProt P41595); assay: Inhibition of 5-HT2B receptor (unknown origin) at 1 uM relative to control
Mu-type opioid receptor [10] = molecular target: Mu-type opioid receptor (Cavia porcellus, UniProt P97266); assay: Displacement of [3H]DAMGO from MOR in guinea pig brain membranes incubated for 120 mins by scintillation counting method; assay type: cell membranes, Membrane
[11] = molecular target: Voltage-gated inwardly rectifying potassium channel KCNH2 (Homo sapiens, UniProt Q12809); assay: Inhibition of human ERG expressed in CHO cells by automated patch clamp assay; assay type: cell-based
[12] = Stability in pH 2 aqueous HCl solution assessed as parent compound remaining after 24 hrs by HPLC; assay type: physicochemical; conditions: buffer, pH 2, 24 h
[13] = molecular target: T3, 5-hydroxytryptamine receptor 1A (Homo sapiens) (UniProt P08908); assay: Inhibition of 5-HT1A receptor (unknown origin) at 1 uM relative to control
T3 sequence (whole entry): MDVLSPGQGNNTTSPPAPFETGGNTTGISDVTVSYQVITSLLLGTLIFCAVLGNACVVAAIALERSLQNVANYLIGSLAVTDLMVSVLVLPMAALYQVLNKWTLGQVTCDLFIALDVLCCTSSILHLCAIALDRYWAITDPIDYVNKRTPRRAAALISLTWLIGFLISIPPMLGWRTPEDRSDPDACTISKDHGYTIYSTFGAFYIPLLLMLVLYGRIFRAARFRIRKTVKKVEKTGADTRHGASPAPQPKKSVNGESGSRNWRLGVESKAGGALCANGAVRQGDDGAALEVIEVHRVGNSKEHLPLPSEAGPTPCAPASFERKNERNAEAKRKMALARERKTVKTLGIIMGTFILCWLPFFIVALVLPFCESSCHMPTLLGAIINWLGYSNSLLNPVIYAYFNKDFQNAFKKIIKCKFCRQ

[14] = molecular target: Histamine H1 receptor (Homo sapiens) (UniProt P35367); assay: Inhibition of histamine H1 receptor (unknown origin) at 1 uM relative to control
[15] = molecular target: Sodium-dependent noradrenaline transporter (Homo sapiens) (UniProt P23975); assay: Inhibition of NET (unknown origin) at 1 uM relative to control
[16] = molecular target: Kappa-type opioid receptor (Cavia porcellus, UniProt P41144); assay: Displacement of [3H]U-69,593 from KOR in guinea pig brain membranes incubated for 120 mins by scintillation counting method; assay type: cell membranes, Membrane
Mus musculus [17] = assay: Antiallodynic activity in CD1 mouse model of capsaicin-induced mechanical allodynia assessed as effect on paw withdrawal latency time at 2 to 64 mg/kg, sc administered 30 mins before capsaicin addition and measured at 30 secs intervals; assay type: functional, organism-based
in vitro = conditions: mouse, liver microsomes
Description: Metabolic stability in mouse liver microsomes assessed as compound remaining at 25 uM after 1 hr in presence of NADPH by LC-MS analysis

Mus musculus [18] = assay: Antiallodynic activity in CD1 mouse model of capsaicin-induced mechanical allodynia assessed as effect on paw withdrawal latency time at 32 mg/kg, sc administered 5 mins after sigma1 receptor agonist PRE-084 dosing followed by capsaicin addition and measured after 30 mins post compound dose; assay type: functional, organism-based
Mus musculus [19] = assay: Antiallodynic activity in CD1 mouse model of capsaicin-induced mechanical allodynia assessed as effect on paw withdrawal latency time at 8 to 16 mg/kg, sc administered 5 mins after sigma1 receptor agonist PRE-084 dosing followed by capsaicin addition and measured after 30 mins post compound dose; assay type: functional, organism-based
Mu-type opioid receptor [20] = molecular target: Mu-type opioid receptor (Homo sapiens, UniProt P35372); assay: Agonist activity at human MOR expressed in CHOK1 cells assessed as reduction in forskolin-induced intracellular cAMP increase after 45 mins by HTRF analysis; assay type: functional, cell-based
[21] = molecular target: T1, Sigma intracellular receptor 2; assay: Displacement of [3H]-DTG from sigma2 receptor in rat liver membranes; assay type: cell membranes, Membrane

Sequence of Sodium-dependent dopamine transporter (Homo sapiens) (Q01959 whole entry): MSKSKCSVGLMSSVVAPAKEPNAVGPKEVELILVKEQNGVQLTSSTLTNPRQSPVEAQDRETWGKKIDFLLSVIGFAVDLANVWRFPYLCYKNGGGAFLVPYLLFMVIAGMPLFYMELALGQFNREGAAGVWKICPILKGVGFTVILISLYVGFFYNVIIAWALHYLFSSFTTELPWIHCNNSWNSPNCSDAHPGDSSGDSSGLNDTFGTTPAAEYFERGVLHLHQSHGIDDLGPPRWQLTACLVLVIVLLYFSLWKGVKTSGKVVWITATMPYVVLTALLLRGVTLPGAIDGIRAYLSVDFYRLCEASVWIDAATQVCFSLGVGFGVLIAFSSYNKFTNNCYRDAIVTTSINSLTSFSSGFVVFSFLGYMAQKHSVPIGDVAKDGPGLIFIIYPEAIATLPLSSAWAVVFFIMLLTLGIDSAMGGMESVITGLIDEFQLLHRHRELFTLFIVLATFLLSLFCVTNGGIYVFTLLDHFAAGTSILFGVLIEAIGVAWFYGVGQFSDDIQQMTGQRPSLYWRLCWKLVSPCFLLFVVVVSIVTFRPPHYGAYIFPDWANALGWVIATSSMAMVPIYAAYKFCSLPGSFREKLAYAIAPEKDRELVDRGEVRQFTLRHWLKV
Sequence of Sodium-dependent noradrenaline transporter (Homo sapiens) (P23975 whole entry): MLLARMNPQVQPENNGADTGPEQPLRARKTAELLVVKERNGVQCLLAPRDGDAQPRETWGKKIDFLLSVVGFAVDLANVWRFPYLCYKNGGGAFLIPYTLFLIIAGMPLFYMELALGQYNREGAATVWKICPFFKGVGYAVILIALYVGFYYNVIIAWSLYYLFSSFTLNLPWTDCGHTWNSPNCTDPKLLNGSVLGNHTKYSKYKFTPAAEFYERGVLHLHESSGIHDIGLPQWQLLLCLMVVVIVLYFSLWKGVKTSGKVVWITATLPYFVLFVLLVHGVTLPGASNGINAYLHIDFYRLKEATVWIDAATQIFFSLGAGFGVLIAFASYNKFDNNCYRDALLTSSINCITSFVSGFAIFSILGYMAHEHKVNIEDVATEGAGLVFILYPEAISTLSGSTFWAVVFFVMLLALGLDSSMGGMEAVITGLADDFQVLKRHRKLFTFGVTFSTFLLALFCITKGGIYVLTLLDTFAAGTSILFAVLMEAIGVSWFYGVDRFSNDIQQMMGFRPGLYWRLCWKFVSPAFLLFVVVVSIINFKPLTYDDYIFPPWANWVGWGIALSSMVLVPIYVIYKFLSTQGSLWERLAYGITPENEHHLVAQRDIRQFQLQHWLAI
Sequence of 5-hydroxytryptamine receptor 2B (Homo sapiens) (P41595 whole entry): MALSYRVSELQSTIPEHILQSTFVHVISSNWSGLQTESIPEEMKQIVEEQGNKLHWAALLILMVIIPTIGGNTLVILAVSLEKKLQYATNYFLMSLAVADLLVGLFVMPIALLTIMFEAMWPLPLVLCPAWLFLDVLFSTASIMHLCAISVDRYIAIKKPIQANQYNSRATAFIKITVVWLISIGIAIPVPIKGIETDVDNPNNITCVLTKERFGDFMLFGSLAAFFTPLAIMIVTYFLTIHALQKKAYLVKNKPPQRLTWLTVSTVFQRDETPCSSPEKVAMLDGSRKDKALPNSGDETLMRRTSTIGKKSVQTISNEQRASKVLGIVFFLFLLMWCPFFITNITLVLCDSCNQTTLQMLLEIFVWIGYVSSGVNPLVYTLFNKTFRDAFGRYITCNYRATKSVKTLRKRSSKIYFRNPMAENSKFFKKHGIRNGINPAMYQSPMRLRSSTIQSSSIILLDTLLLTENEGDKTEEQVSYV
Sequence of Glutamate receptor ionotropic, NMDA 2B (Q13224 whole entry): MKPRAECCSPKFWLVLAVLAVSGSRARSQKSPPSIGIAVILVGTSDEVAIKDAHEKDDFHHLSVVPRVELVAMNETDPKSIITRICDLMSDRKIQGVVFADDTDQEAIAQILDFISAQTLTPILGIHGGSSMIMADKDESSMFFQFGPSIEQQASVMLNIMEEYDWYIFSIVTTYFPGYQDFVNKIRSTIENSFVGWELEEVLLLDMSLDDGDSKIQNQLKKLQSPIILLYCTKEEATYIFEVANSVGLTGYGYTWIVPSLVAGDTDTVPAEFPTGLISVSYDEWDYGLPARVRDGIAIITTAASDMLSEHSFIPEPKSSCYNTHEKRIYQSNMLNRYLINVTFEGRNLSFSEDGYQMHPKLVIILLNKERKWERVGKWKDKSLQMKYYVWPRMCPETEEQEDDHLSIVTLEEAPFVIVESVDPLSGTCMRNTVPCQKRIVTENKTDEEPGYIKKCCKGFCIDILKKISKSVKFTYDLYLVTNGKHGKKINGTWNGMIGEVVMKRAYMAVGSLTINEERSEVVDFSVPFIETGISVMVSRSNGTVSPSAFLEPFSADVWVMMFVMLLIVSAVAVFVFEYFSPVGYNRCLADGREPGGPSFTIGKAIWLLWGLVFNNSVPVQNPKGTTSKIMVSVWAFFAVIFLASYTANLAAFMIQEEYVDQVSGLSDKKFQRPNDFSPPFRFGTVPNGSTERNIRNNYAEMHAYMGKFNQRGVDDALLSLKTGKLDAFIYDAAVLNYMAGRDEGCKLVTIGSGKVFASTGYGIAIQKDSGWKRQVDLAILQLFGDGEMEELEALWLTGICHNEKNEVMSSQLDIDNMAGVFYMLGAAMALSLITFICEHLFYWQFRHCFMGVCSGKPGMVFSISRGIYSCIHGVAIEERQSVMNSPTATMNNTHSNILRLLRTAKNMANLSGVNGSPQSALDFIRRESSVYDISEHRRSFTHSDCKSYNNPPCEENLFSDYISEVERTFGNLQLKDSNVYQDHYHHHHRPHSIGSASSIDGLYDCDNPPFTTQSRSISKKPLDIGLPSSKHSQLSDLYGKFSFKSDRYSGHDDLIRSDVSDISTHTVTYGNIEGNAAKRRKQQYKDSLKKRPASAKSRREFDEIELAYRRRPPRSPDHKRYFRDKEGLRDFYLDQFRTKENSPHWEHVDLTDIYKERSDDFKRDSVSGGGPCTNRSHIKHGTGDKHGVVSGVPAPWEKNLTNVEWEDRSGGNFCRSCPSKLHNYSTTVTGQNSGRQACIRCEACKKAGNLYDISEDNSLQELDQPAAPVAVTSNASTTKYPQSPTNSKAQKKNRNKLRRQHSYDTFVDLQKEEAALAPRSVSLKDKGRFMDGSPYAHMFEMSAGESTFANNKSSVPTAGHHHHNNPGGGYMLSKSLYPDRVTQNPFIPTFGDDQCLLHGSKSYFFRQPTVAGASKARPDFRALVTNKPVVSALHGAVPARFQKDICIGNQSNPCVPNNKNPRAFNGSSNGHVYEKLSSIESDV
Sequence of Histamine H1 receptor (Homo sapiens) (P35367 whole entry): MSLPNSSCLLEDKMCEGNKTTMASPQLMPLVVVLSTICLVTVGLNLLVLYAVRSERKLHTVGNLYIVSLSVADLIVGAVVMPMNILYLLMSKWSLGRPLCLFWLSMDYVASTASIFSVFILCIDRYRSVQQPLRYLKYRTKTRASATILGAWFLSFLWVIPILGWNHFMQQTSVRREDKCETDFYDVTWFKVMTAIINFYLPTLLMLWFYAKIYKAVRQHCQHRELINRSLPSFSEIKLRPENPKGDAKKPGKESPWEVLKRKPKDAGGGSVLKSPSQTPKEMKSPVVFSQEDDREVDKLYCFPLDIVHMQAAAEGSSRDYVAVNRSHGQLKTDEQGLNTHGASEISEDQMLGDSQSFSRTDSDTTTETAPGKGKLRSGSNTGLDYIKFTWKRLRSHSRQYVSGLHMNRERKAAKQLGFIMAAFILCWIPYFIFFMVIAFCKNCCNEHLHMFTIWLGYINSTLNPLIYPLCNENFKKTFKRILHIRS
Sequence of Sigma non-opioid intracellular receptor 1 (Q60492 whole entry): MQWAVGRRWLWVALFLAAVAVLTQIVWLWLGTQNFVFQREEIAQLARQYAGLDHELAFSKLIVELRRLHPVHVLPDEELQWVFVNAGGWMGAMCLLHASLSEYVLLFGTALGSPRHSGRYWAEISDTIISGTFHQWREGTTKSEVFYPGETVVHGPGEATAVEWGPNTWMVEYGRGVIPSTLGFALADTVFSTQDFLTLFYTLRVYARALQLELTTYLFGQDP
Sequence of Sodium-dependent serotonin transporter (Homo sapiens) (P31645 whole entry, looked up): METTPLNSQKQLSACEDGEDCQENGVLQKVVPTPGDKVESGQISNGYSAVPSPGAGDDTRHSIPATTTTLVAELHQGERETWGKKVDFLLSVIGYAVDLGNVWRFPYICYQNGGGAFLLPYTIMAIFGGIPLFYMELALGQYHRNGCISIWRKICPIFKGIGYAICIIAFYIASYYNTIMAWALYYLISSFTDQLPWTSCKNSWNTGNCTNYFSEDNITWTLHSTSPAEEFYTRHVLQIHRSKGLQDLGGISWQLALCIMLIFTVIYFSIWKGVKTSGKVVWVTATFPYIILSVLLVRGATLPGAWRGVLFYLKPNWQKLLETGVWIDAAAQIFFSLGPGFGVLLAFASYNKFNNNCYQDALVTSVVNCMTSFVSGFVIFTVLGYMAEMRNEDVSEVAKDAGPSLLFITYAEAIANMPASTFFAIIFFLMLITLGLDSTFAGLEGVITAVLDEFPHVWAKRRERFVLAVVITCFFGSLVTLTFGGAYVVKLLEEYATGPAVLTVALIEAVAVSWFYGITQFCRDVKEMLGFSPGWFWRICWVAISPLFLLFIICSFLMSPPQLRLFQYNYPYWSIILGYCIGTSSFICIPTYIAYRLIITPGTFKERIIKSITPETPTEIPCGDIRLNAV
Sequence of Kappa-type opioid receptor (P41144 whole entry): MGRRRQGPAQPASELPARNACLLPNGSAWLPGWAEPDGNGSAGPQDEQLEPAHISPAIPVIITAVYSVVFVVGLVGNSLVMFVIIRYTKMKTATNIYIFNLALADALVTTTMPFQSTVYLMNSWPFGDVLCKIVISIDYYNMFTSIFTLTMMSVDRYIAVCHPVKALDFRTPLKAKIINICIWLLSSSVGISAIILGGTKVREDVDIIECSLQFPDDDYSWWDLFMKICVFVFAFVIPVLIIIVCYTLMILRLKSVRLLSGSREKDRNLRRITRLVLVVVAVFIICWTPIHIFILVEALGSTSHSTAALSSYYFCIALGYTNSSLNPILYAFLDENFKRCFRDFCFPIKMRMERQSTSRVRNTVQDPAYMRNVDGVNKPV
Sequence of Mu-type opioid receptor (Cavia porcellus, UniProt P97266) (P97266 whole entry): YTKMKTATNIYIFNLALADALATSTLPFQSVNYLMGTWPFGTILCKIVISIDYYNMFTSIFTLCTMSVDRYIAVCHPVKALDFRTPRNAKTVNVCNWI

OCC[C@@H]1Cc2ccccc2C2(CCC(N3CCN(C4CCCCC4)CC3)CC2)O1 (some centres undefined)
Ki [1]: 0.061 µM
Ki [2]: 0.172 µM

CCOC(=O)C[C@H]1Cc2ccccc2C2(CCC(N3CCN(C4CCCCC4)CC3)CC2)O1 (some centres undefined)
Stability [3]: Stable
inhibition [4]: < 50%
inhibition [5]: 78%
Ki [6]: > 1 µM
Ki [7]: 0.054 µM
inhibition [8]: < 50%
inhibition [9]: < 50%
Ki (Mu-type opioid receptor [10]): 0.458 µM
IC50 [11]: 1.75 µM
Stability [12]: Stable
inhibition [13]: 68%
inhibition [14]: 98%
inhibition [15]: < 50%
Ki [2]: 0.051 µM

CCOC(=O)C[C@@H]1Cc2ccccc2C2(CCC(NCc3ccc(C)cc3C)CC2)O1 (some centres undefined)
Ki [2]: 0.231 µM

O[C@H]1Cc2ccccc2C2(CCC(N3CCN(C4CCCCC4)CC3)CC2)O1 (some centres undefined)
Stability [3]: Stable
inhibition [4]: < 50%
inhibition [5]: < 50%
Ki [6]: > 1 µM
Ki [7]: 0.034 µM
Ki [1]: 0.047 µM
inhibition [8]: < 50%
inhibition [9]: < 50%
IC50 [11]: 3.21 µM
Stability [12]: Stable
Ki [16]: 0.781 µM
inhibition [13]: 55%
inhibition [14]: 76%
inhibition [15]: < 50%
Ki [2]: 0.027 µM

FCC[C@@H]1Cc2ccccc2C2(CCC(N3CCN(C4CCCCC4)CC3)CC2)O1 (some centres undefined)
Activity (Mus musculus [17]): Active
inhibition [4]: < 50%
inhibition [5]: < 50%
Ki [6]: > 1 µM
Ki [7]: 0.065 µM
inhibition [8]: < 50%
inhibition [9]: < 50%
remaining at 1 h, 25 µM (in vitro): 71.8%
Activity (Mus musculus [18]): Active
Activity (Mus musculus [19]): inactive
inhibition [13]: 62%
inhibition [14]: < 50%
inhibition [15]: < 50%
Ki [2]: 0.045 µM
EC50 (Mu-type opioid receptor [20]): 1.76 µM

Cc1ccc(CNC2CCC3(CC2)O[C@@H](CCF)Cc2ccccc23)c(C)c1 (some centres undefined)
Ki [1]: 0.966 µM

Cc1ccc(CNC2CCC3(CC2)O[C@@H](CCO)Cc2ccccc23)c(C)c1 (some centres undefined)
Ki [1]: 0.548 µM
Ki [2]: 0.179 µM

CO[C@@H]1Cc2ccccc2C2(CCC(NCc3ccc(C)cc3C)CC2)O1 (some centres undefined)
Ki [1]: 0.736 µM
Ki [2]: 0.0076 µM

COc1cc2c(cc1OC)CN(C1CCC3(CC1)O[C@H](CCF)Cc1ccccc13)CC2 (some centres undefined)
Ki [1]: 0.807 µM

COc1cc2c(cc1OC)CN(CCCCNC(=O)c1cc(Br)cc(OC)c1OC)CC2
Ki [21]: 0.0082 µM
Ki [2]: 0.0082 µM

Cc1ccc(CNC2CCC3(CC2)O[C@@H](O)Cc2ccccc23)c(C)c1 (some centres undefined)
Ki [2]: 0.066 µM

O[C@@H]1Cc2ccccc2C2(CCC(N3CCN(C4CCCCC4)CC3)CC2)O1 (some centres undefined)
Ki [1]: 0.077 µM

OCC[C@H]1Cc2ccccc2C2(CCC(N3CCN(C4CCCCC4)CC3)CC2)O1 (some centres undefined)
Ki [1]: 0.028 µM

Cc1ccc(CNC2CCC3(CC2)O[C@H](O)Cc2ccccc23)c(C)c1 (some centres undefined)
Ki [1]: 0.349 µM
Ki [2]: 0.181 µM

CO[C@H]1Cc2ccccc2C2(CCC(NC3CCc4ccccc4CC3)CC2)O1 (some centres undefined)
Ki [1]: 0.265 µM
Ki [2]: 0.077 µM

Cc1ccc(CNC2CCC3(CC2)O[C@H](CCO)Cc2ccccc23)c(C)c1 (some centres undefined)
Ki [2]: 0.381 µM

CCOC(=O)C[C@H]1Cc2ccccc2C2(CCC(N3CCc4cc(OC)c(OC)cc4C3)CC2)O1 (some centres undefined)
Ki [2]: 0.343 µM

— ChEMBL document CHEMBL4152385, “Synthesis, Receptor Affinity, and Antiallodynic Activity of Spirocyclic σ Receptor Ligands with Exocyclic Amino Moiety” (J Med Chem, 2018)
